biological target: T1, PAR4 (Homo sapiens, UniProt Q96RI0); assay: PAR4 FLIPR assay (antagonism of agonist peptide-induced calcium mobilization); assay type: cell-based
T1 construct: expressed in transfected cells; host or cells: HEK293 PAR4 Clone 1.2A (BMS Arctic ID 383940)
T1 sequence (Q96RI0 18-385): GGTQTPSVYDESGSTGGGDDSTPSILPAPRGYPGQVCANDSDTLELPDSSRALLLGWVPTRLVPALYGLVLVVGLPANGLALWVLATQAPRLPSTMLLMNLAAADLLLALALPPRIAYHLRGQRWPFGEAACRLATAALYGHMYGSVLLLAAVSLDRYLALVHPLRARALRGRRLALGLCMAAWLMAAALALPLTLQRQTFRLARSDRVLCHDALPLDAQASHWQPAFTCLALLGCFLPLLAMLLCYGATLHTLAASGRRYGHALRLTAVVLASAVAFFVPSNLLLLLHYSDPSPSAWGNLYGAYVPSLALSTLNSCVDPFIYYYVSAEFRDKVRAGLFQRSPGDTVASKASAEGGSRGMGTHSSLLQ
Source text: The FLIPR assay is an exemplary in vitro assay for measuring the activity of the PAR4 antagonists of the present invention. In this assay, intracellular calcium mobilization is induced in PAR4 expressing cells by a PAR4 agonist and calcium mobilization is monitored.
HEK293 cells stably expressing PAR4 were generated by a standard method of transfection of human PAR4 (F2R23) cDNA expression vector and selected based on PAR4 protein expression or mRNA expression. […] These cells also express endogenous PAR1 and can elicit calcium signal upon stimulation with PAR1 agonist peptide. Therefore, the same cells were also used to determine selectivity against PAR1 and agonist activity for both receptors. Cells from HEK293 PAR4 Clone 1.2A (BMS Arctic ID 383940) were propagated and used for calcium mobilization studies.
FLIPR-based calcium mobilization assay in HEK293 cells was used to measure PAR4 antagonism, agonism, and selectivity against PAR1. The activity of the PAR4 antagonists of the present invention were tested in PAR4 expressing cells by monitoring H-Ala-Phe(4-F)-Pro-Gly-Trp-Leu-Val-Lys-Asn-Gy-NH2-induced intracellular calcium mobilization. Counter screens for agonist activity and PAR1 antagonist activity were also performed. Briefly, PAR1/PAR4-expressing HEK293 cells were grown in DMEM (Life Technology, Grand Island, NY) containing 10% heat-inactivated FBS, 1% Penicillin-Streptomycin, 10 μg/mL blasticidin, and 100 μg/mL Zeocin at 37° C. with 5% CO2. Cells were plated overnight prior to the experiment in a black 384-well Purecoat Amine clear bottom plate (Becton Dickinson Biosciences, San Jose, CA) at 10,000 cells/well in 30 μL growth medium and incubated in a humidified chamber at 37° C. with 5% CO2 overnight. Prior to compound addition, the cell medium was replaced with 40 μL of 1× calcium and magnesium-containing Hank's Balanced Saline Solution (HBSS) (with 20 mM HEPES) and 1:1000 diluted fluorescent calcium indicator (Codex Biosolutions, Gaithersburg, MD). After a 30 minute incubation period at 37° C. and a further 30 minute incubation and equilibration period at room temperature, 20 μL test compound (diluted in 1×HBSS buffer) was added at various concentrations at 0.17% dimethyl sulfoxide (DMSO) final concentration. Changes in fluorescence intensity were measured using a Functional Drug Screening System (FDSS, Hamamatsu, Japan) to determine agonist activities. The cells were then incubated for 30 minutes at room temperature followed by addition of 20 μL of agonist peptide for antagonist activity measurement. […] Compound potency was derived from 11-point concentration-response curves.

| Compound | IC50 [nM] |
| --- | --- |
| COc1cnc2c(-c3nc4c(C)cc5c(c4s3)OC[C@H](COC(=O)Nc3ccc(C#N)nc3)O5)cc(C)cc2n1 [Example 38, (R)-(2-(2-methoxy-7-methylquinoxalin-5-yl)-4-methyl-7,8-dihydro-[1,4]dioxino[2′,3′:3,4]benzo[1,2-d]thiazol-7-yl)methyl (6-cyanopyridin-3-yl)carbamate] | 1.3 |
| COc1cnc2c(-c3nc4c(Cl)cc5c(c4s3)OC[C@H](COC(=O)Nc3ccc4scnc4c3)O5)cc(C)cc2n1 [Example 39, (R)-(4-chloro-2-(2-methoxy-7-methylquinoxalin-5-yl)-7,8-dihydro-[1,4]dioxino[2′,3′:3,4]benzo[1,2-d]thiazol-7-yl)methyl benzo[d]thiazol-5-ylcarbamate] | 18 |
| COc1cnc2c(-c3nc4c(Cl)cc5c(c4s3)OC[C@H](COC(=O)Nc3ccc4ncsc4c3)O5)cc(C)cc2n1 [Example 40, (R)-(4-chloro-2-(2-methoxy-7-methylquinoxalin-5-yl)-7,8-dihydro-[1,4]dioxino[2′,3′:3,4]benzo[1,2-d]thiazol-7-yl)methyl benzo[d]thiazol-6-ylcarbamate] | 97 |
| COc1cnc2c(-c3nc4c(C)cc5c(c4s3)OC[C@H](COC(=O)Nc3ccc(F)nc3)O5)cc(C)cc2n1 [Example 41, (R)-(2-(2-methoxy-7-methylquinoxalin-5-yl)-4-methyl-7,8-dihydro-[1,4]dioxino[2′,3′:3,4]benzo[1,2-d]thiazol-7-yl)methyl (6-fluoropyridin-3-yl)carbamate] | 1.6 |
| COc1cnc2c(-c3nc4c(C)cc5c(c4s3)OC[C@H](COC(=O)Nc3cncc(F)c3)O5)cc(C)cc2n1 [Example 42, (R)-(2-(2-methoxy-7-methylquinoxalin-5-yl)-4-methyl-7,8-dihydro-[1,4]dioxino[2′,3′:3,4]benzo[1,2-d]thiazol-7-yl)methyl (5-fluoropyridin-3-yl)carbamate] | 50 |
| COc1cncc(NC(=O)OC[C@H]2COc3c(cc(C)c4nc(-c5cc(C)cc6nc(OC)cnc56)sc34)O2)c1 [Example 43, (R)-(2-(2-methoxy-7-methylquinoxalin-5-yl)-4-methyl-7,8-dihydro-[1,4]dioxino[2′,3′:3,4]benzo[1,2-d]thiazol-7-yl)methyl (5-methoxypyridin-3-yl)carbamate] | 7.9 |
| COc1cnc2c(-c3nc4c(C)cc5c(c4s3)OC[C@H](COC(=O)Nc3ccnc(C)c3)O5)cc(C)cc2n1 [Example 44, (R)-(2-(2-methoxy-7-methylquinoxalin-5-yl)-4-methyl-7,8-dihydro-[1,4]dioxino[2′,3′:3,4]benzo[1,2-d]thiazol-7-yl)methyl (2-methylpyridin-4-yl)carbamate] | 0.8 |
| COc1cc(NC(=O)OC[C@H]2COc3c(cc(C)c4nc(-c5cc(C)cc6nc(OC)cnc56)sc34)O2)ccn1 [Example 45, (R)-(2-(2-methoxy-7-methylquinoxalin-5-yl)-4-methyl-7,8-dihydro-[1,4]dioxino[2′,3′:3,4]benzo[1,2-d]thiazol-7-yl)methyl (2-methoxypyridin-4-yl)carbamate] | 1.1 |
| COc1cnc2c(-c3nc4c(C)cc5c(c4s3)OC[C@H](COC(=O)Nc3cccc(C#N)c3)O5)cc(C)cc2n1 [Example 46, (R)-(2-(2-methoxy-7-methylquinoxalin-5-yl)-4-methyl-7,8-dihydro-[1,4]dioxino[2′,3′:3,4]benzo[1,2-d]thiazol-7-yl)methyl (3-cyanophenyl)carbamate] | 1 |
| COc1cnc2c(-c3nc4c(C)cc5c(c4s3)OC[C@H](COC(=O)Nc3ccc(Cl)nc3)O5)cc(C)cc2n1 [Example 47, (R)-(2-(2-methoxy-7-methylquinoxalin-5-yl)-4-methyl-7,8-dihydro-[1,4]dioxino[2′,3′:3,4]benzo[1,2-d]thiazol-7-yl)methyl (6-chloropyridin-3-yl)carbamate] | 1.2 |
| COc1cnc2c(-c3nc4c(C)cc5c(c4s3)OC[C@H](COC(=O)Nc3ccncc3)O5)cc(C)cc2n1 [Example 48, (R)-(2-(2-methoxy-7-methylquinoxalin-5-yl)-4-methyl-7,8-dihydro-[1,4]dioxino[2′,3′:3,4]benzo[1,2-d]thiazol-7-yl)methyl pyridin-4-ylcarbamate] | 25 |
| COc1cnc2c(-c3nc4c(C)cc5c(c4s3)OC[C@H](COC(=O)Nc3ccc4scnc4c3)O5)cc(C)cc2n1 [Example 49, (R)-(2-(2-methoxy-7-methylquinoxalin-5-yl)-4-methyl-7,8-dihydro-[1,4]dioxino[2′,3′:3,4]benzo[1,2-d]thiazol-7-yl)methyl benzo[d]thiazol-5-ylcarbamate] | 49 |
| COc1cnc2c(-c3nc4c(C)cc5c(c4s3)OC[C@H](COC(=O)Nc3ccc4ncsc4c3)O5)cc(C)cc2n1 [Example 50, (R)-(2-(2-methoxy-7-methylquinoxalin-5-yl)-4-methyl-7,8-dihydro-[1,4]dioxino[2′,3′:3,4]benzo[1,2-d]thiazol-7-yl)methyl benzo[d]thiazol-6-ylcarbamate] | 140 |
| COc1cnc2c(-c3nc4c(C)cc5c(c4s3)OC[C@H](COC(=O)Nc3cncc(C#N)c3)O5)cc(C)cc2n1 [Example 51, (R)-(2-(2-methoxy-7-methylquinoxalin-5-yl)-4-methyl-7,8-dihydro-[1,4]dioxino[2′,3′:3,4]benzo[1,2-d]thiazol-7-yl)methyl (5-cyanopyridin-3-yl)carbamate] | 16 |
| COc1cnc2c(-c3nc4c(C)cc5c(c4s3)OC[C@H](COC(=O)Nc3ccc(-c4cccs4)nc3)O5)cc(C)cc2n1 [Example 53, (R)-(2-(2-methoxy-7-methylquinoxalin-5-yl)-4-methyl-7,8-dihydro-[1,4]dioxino [2′,3′:3,4]benzo[1,2-d]thiazol-7-yl)methyl (6-(thiophen-2-yl)pyridin-3-yl)carbamate] | 54 |
| COc1cnc2c(-c3nc4c(C)cc5c(c4s3)OC[C@H](COC(=O)Nc3cnc4c(c3)ncn4C)O5)cc(C)cc2n1 [Example 54, (R)-(2-(2-methoxy-7-methylquinoxalin-5-yl)-4-methyl-7,8-dihydro-[1,4]dioxino[2′,3′:3,4]benzo[1,2-d]thiazol-7-yl)methyl (3-methyl-3H-imidazo[4,5-b]pyridin-6-yl)carbamate] | 1.6 |
| COc1cnc2c(-c3nc4c(C)cc5c(c4s3)OC[C@H](COC(=O)Nc3ccc(-n4cnc(C)n4)nc3)O5)cc(C)cc2n1 [Example 55, (R)-(2-(2-methoxy-7-methylquinoxalin-5-yl)-4-methyl-7,8-dihydro-[1,4]dioxino [2′,3′:3,4]benzo[1,2-d]thiazol-7-yl)methyl (6-(3-methyl-1H-1,2,4-triazol-1-yl)pyridin-3-yl)carbamate] | 21 |
| COc1cnc2c(-c3nc4c(C)cc5c(c4s3)OC[C@H](COC(=O)Nc3ccc(C)nc3)O5)cc(C)cc2n1 [Example 56, (R)-(2-(2-methoxy-7-methylquinoxalin-5-yl)-4-methyl-7,8-dihydro-[1,4]dioxino[2′,3′:3,4]benzo[1,2-d]thiazol-7-yl)methyl (6-methylpyridin-3-yl)carbamate] | 1 |
| COc1cnc2c(-c3nc4c(C)cc5c(c4s3)OC[C@H](COC(=O)Nc3cncc(C)c3)O5)cc(C)cc2n1 [Example 57, (R)-(2-(2-methoxy-7-methylquinoxalin-5-yl)-4-methyl-7,8-dihydro-[1,4]dioxino[2′,3′:3,4]benzo[1,2-d]thiazol-7-yl)methyl (5-methylpyridin-3-yl)carbamate] | 9.7 |
| COc1cnc2c(-c3nc4c(Cl)cc5c(c4s3)OC[C@H](COC(=O)Nc3cnc(Cl)nc3)O5)cc(C)cc2n1 [Example 58, (R)-(4-chloro-2-(2-methoxy-7-methylquinoxalin-5-yl)-7,8-dihydro-[1,4]dioxino[2′,3′:3,4]benzo[1,2-d]thiazol-7-yl)methyl (2-chloropyrimidin-5-yl)carbamate] | 8.8 |

Source: US11932658B2 (BRISTOL-MYERS SQUIBB COMPANY, priority 2016, dated 2024)
